The source of these data is patent publication US20090281036A1, “FUSION PEPTIDE FOR INHIBITING INTERACTION OF NEURONAL NMDA RECEPTOR (NMDAR) AND NMDAR INTERACTING PROTEINS” (priority 2006, published 2009).

“Also recorded” adds a separate entry of the source. Where no end group is shown, it is not given here. [ ]: non-standard residue; d: D form.

In test [1] the test system is Rat cortical neurons. As to the kind of experiment: Duration of neuroprotection afforded by TAT-NR2B9c in the face of excitotoxic insults (NMDA-induced cell death, pyknotic nuclei as % of total). It is filed as cell-based. The settings on record: for significant protection (duration after washout): peptide 10 μM for 1 hr, then washout. The procedure:
Rat cortical neurons, taken from E21 rats, were cultured for 7-9 days in vitro in Neurobasal-A medium+B-27 supplement (both invitrogen), 1 mM glutamine, +50 units/ml penicillin, 50 μg/ml streptomycin. • 1. At varying times prior to compound exposure, neurons were removed from Neurobasal-A based culture medium, and placed into “transfection medium” (TM; Bading et al. (1993), Science 260, 181-186): 10% (Minimum Essential Medium, invitrogen (21090022), containing Earles salt, but no L-glutamine), 90% Salt-Glucose-Glycine (SGG) medium SGG: 114 mM NaCl, 0.219% NaHCO3, 5.292 mM KCl, 1 mM MgCl2, 2 mM CaCl2, 10 mM HEPES, 1 mM Glycine, 30 mM Glucose, 0.5 mM sodium pyruvate, 0.1% Phenol Red, insulintransferrin-selenite supplement (Sigma, 7.5 μg insulin/ml; 7.5 μg transferrin/ml and 7.5 ng sodium selenite/ml); final osmolarity 325 mosm/l). All subsequent steps took place in TM. • 2. Neurons were then exposed to inventive fusion peptides at 10 μM for 1 hr. (particularly TAT-NR2B9c peptides in L-form (L-TAT-L-NR2B9c sequence YGRKKRRQRRR-KLSSIESDV (SEQ ID NO: 32), identical to US 20030050243) and their D-form (D-TAT-D-NR2B9c, sequence vdseisslk-rrrqrrkkrgyin (SEQ ID NO: 33))) • 3. After 1 hr neurons were washed once in TM to remove peptide. • 4. After a varying period of time, neurons were exposed to NMDA at either 20 or 40 μM for 1 hr, after which neurons are placed in TM for 24 h. • 5. Neurons were fixed (3% paraformaldehyde) and stained (DAPI, 4′,6-Diamidino-2-phenylindole). Number of pyknotic nuclei as a % of total is counted. Experiments were performed in triplicate.

The subject of test [2] is Rat cortical neurons. Nature of the test: Duration of neuroprotection afforded by (Arg)8-NR2B9c in the face of excitotoxic insults (NMDA-induced cell death, pyknotic nuclei as % of total). It is filed as cell-based. The protocol: Rat cortical neurons, taken from E21 rats, were cultured for 7-9 days in vitro in Neurobasal-A medium+B-27 supplement (both Invitrogen), 1 mM glutamine, +50 units/ml penicillin, 50 μg/ml streptomycin • 1. At varying times prior to peptide exposure, neurons were removed from Neurobasal-A based culture medium, and placed into TM (see above) with the inclusion of Insulin-transferrin-selenite supplement (Sigma). All subsequent steps took place in TM (see above). • 2. Neurons were then exposed to inventive fusion peptides at 10 μM for 1 hr. (particularly (Arg)8-NR2B9c peptides in D-form (D-TAT-D-NR2B9c, sequence vdseisslk-rrrrrrrr (SEQ ID NO: 35)) and also L-form (SEQ ID NO: 34)) • 3. After 1 hr neurons were washed once in TM to remove peptide. • 4. After a varying period of time, neurons were exposed to NMDA for 1 hr, after which neurons are placed in TM for 24 h. • 5. Neurons were fixed (3% paraformaldehyde) and stained (DAPI 4′,6-Diamidino-2-phenylindole). The number of pyknotic nuclei as a % of total was counted. Experiments were performed in triplicate.

Take “vdseisslk-rrrqrrkkrgy ([dV][dD][dS][dE][dI][dS][dS][dL][dK][dR][dR][dR][dQ][dR][dR][dK][dK][dR]G[dY]-NH2; N-terminus assumed; SMILES CC[C@@H](C)[C@@H](NC(=O)[C@@H](CCC(=O)O)NC(=O)[C@@H](CO)NC(=O)[C@@H](CC(=O)O)NC(=O)[C@H](N)C(C)C)C(=O)N[C@H](CO)C(=O)N[C@H](CO)C(=O)N[C@H](CC(C)C)C(=O)N[C@H](CCCCN)C(=O)N[C@H](CCCNC(=N)N)C(=O)N[C@H](CCCNC(=N)N)C(=O)N[C@H](CCCNC(=N)N)C(=O)N[C@H](CCC(N)=O)C(=O)N[C@H](CCCNC(=N)N)C(=O)N[C@H](CCCNC(=N)N)C(=O)N[C@H](CCCCN)C(=O)N[C@H](CCCCN)C(=O)N[C@H](CCCNC(=N)N)C(=O)NCC(=O)N[C@H](Cc1ccc(O)cc1)C(N)=O) [D-TAT-D-NR2B9c, inventive fusion peptide of D-TAT transporter and D-NR2B9c]”: in the test with Rat cortical neurons [1] (20 μM NMDA, FIG. 1), the “efficacy (lowered cell death rate %) versus comparative compound L-TAT-L-NR2B9c” value is recorded as “at least equal, but predominantly significantly increased efficacy”; the “gap between peptide incubation and NMDA addition at which the positive effect shows” value was at least 8 h. Also, in the test on Rat cortical neurons [1] (40 μM NMDA, FIG. 2), the “efficacy (lowered cell death rate %) versus comparative compound L-TAT-L-NR2B9c” value is listed as “at least equal, but predominantly significantly increased efficacy”; the “time window in which the remarkable positive effect becomes apparent” value was “less than 24 h”; the “significant protection (duration after washout)” value is “up to 24 hours”.

Regarding “vdseisslk-rrrrrrrr ([dV][dD][dS][dE][dI][dS][dS][dL][dK][dR][dR][dR][dR][dR][dR][dR][dR]) [D-(Arg)8-D-NR2B9c, inventive fusion peptide of D-(Arg)8 transporter and D-NR2B9c]”, the “efficacy (lowered cell death rate %) versus comparative compound L-(Arg)8-L-NR2B9c” value in the test with Rat cortical neurons [2] (20 μM NMDA, FIG. 3) is “at least equal, but predominantly significantly increased efficacy”; with Rat cortical neurons [2] (40 μM NMDA, up to the 8 hr time point, FIG. 4), “at least equal, but predominantly significant increased efficacies; also recorded: equal to better protective effects”. Moreover, the “superior neuroprotection after washout of the peptide (duration)” value with Rat cortical neurons [2] (20 μM NMDA, peptide 10 μM for 1 hr, then washout, FIG. 3) is given as “up to 8 hours”. The “performance compared with D-TAT-D-NR2B9c” value in the test with Rat cortical neurons [2] (overall, 20 and 40 μM NMDA) is listed as “performs similar to D-TAT-D-NR2B9c (SEQ ID NO: 33)), albeit with a shorter duration of neuroprotective activity”.

Turning to “YGRKKRRQRRRKLSSIESDV (Description of sequence L-TAT-L-NR2B9c sequence) [comparative compound, identical to US 20030050243, reference compound]”, the “significant protection (duration after washout)” value in the test on Rat cortical neurons [1] (40 μM NMDA, FIG. 2) was 1 h.
